Each compound was assayed against T1, human MC1R (hMC1R) (Homo sapiens, UniProt Q01726) (assay: Human MC1R radioligand binding assay (displacement of 125I-labeled NDP-MSH, Perkin Elmer hMC1R membranes)). Details: displacement of [125I]NDP-MSH, compounds tested as trifluoroacetate or hydrochloride salts or free base.
T1 construct: purchased Perkin Elmer ES-195-M400UA
T1 sequence (Q01726 whole entry): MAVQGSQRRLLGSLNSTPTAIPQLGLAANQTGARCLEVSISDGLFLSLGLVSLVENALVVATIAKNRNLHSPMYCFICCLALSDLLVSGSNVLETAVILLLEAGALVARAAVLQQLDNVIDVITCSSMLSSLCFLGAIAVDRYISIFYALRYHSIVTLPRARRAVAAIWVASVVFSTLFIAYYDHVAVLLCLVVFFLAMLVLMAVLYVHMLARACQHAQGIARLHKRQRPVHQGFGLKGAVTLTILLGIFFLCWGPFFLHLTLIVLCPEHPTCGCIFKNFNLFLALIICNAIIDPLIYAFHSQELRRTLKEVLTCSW
Method: Assessments of compound binding to human MC1R (hMC1R)) by displacement of an ^125I-labeled NDP-MSH receptor ligand peptide were performed essentially as described in the data sheets produced by Perkin Elmer to accompany their frozen hMC1R membranes (Perkin Elmer catalog number ES-195-M400UA).
[^125I] NDP-MSH: radiolabeled in house and purified by HPLC:
Na ^125I (0.5 mCi, 17.4 Ci/mg) was added to 50 μL sodium phosphate (50 mM, pH 7.4) in an eppendorf tube precoated with IODOGEN. After incubation for 10 mins the phosphate buffer containing the iodine was added to NDP-MSH (10 ul at 1 mg/mL) in a separate eppendorf tube. This was incubated for a further 10 mins. The iodinated NDP-MSH was purified by HPLC on a Zorbax SB 300 column using solvent A: 0.05% TFA and solvent B: 90% acetonitrile 0.045% TFA with a linear gradient, 0-67% B over 60 mins.
Perkin Elmer frozen hMC1 membranes: catalog number ES-195-M400UA, 0.4 mL/vial; 400 microassays/vial, 0.78 mg/mL protein concentration
Vials of frozen membranes were thawed rapidly immediately before use, diluted with binding buffer and vortexed. Resuspended membranes were kept on ice until they were added to the wells of the plate.
Assays were performed in 96 well polypropylene plates. […] This was incubated for 1 hr at 37° C.
With O=C(/C=C/c1ccc(Cl)cc1)NC[C@@H]1CCN(Cc2cc(Cl)cc(Cl)c2)C(=O)[C@H](CCN2CCCCC2)N1 [Compound 145, (E)-3-(4-chlorophenyl)-N-(((3S,5S)-1-(3,5-dichlorobenzyl)-2-oxo-3-(2-(piperidin-1-yl)ethyl)-1,4-diazepan-5-yl)methyl)acrylamide] the IC50 was < 10 µM. O=C(NC[C@@H]1CCN(CC(c2ccccc2)c2ccccc2)C(=O)[C@H](CCN2CCCCC2)N1)c1cc(-c2ccc(Cl)cc2)on1 [Compound 162, 5-(4-chlorophenyl)-N-(((3S,5S)-1-(2,2-diphenylethyl)-2-oxo-3-(2-(piperidin-1-yl)ethyl)-1,4-diazepan-5-yl)methyl)isoxazole-3-carboxamide] was tested, and the IC50 was < 10 µM. For N=C(N)NCCC[C@@H]1N[C@H](CNC(=O)c2cccc(Oc3ccccc3)c2)CCN(CC(c2ccccc2)c2ccccc2)C1=O [Compound 111, N-(((3S,5S)-1-(2,2-diphenylethyl)-3-(b3-guanidinopropyl)-2-oxo-1,4-diazepan-5-yl)methyl)-3-phenoxybenzamide], the IC50 was < 10 µM. NCCC[C@@H]1N[C@H](CNC(=O)c2ccc3ccccc3c2)CCN(CC2(c3ccccc3)CCCCC2)C1=O [Compound 144, N-(((3S,5S)-3-(3-aminopropyl)-2-oxo-1-((1-phenylcyclohexyl)methyl)-1,4-diazepan-5-yl)methyl)-2-naphthamide] was tested, and the IC50 was < 10 µM. CC1CC(C)CC(CN2CC[C@@H](CNC(=O)c3ccc4ccccc4c3)N[C@@H](CCCNC(=N)N)C2=O)C1 (stereo partly drawn) [Compound 139, N-(((3S,5S)-1-((3,5-dimethylcyclohexyl)methyl)-3-(3-guanidinopropyl)-2-oxo-1,4-diazepan-5-yl)methyl)-2-naphthamide] was tested, and the IC50 was < 10 µM. For NCCC[C@@H]1N[C@H](CNC(=O)c2ccc3cc(F)ccc3c2)CCN(CC(c2ccccc2)c2ccccc2)C1=O [Compound 122, N-(((3S,5S)-3-(3-aminopropyl)-1-(2,2-diphenylethyl)-2-oxo-1,4-diazepan-5-yl)methyl)-6-fluoro-2-naphthamide], the IC50 was < 10 µM. NCCC[C@@H]1N[C@H](CNC(=O)/C=C/c2ccc(F)cc2)CCN(CC(c2ccccc2)c2ccccc2)C1=O [Compound 121, (E)-N-(((3S,5S)-3-(3-aminopropyl)-1-(2,2-diphenylethyl)-2-oxo-1,4-diazepan-5-yl)methyl)-3-(4-fluorophenyl)acrylamide] was tested, and the IC50 was < 10 µM. “(E)-N-(((3S,5S)-3-(aminomethyl)-1-(3,5-dichlorobenzyl)-2-oxo-1,4-diazepan-5-yl)methyl)-3-(4-chlorophenyl)acrylamide [Compound 150]” was tested, and the IC50 was < 10 µM. For N=C(N)NCCC[C@@H]1N[C@H](CNS(=O)(=O)c2ccc3ccccc3c2)CCN(CC(c2ccccc2)c2ccccc2)C1=O [Compound 103, N-(((3S,5S)-1-(2,2-diphenylethyl)-3-(3-guanidinopropyl)-2-oxo-1,4-diazepan-5-yl)methyl)naphthalene-2-sulfonamide], the IC50 was < 10 µM. For N=C(N)NCCC[C@@H]1N[C@H](CNC(=O)c2ccc3ccccc3c2)CCN(CC(c2ccccc2)c2ccccc2)C1=O [Compound 107, N-(((3S,5S)-1-(2,2-diphenylethyl)-3-(3-guanidinopropyl)-2-oxo-1,4-diazepan-5-yl)methyl)-2-naphthamide], the IC50 was < 10 µM. For CC[C@H](CN1CC[C@@H](CNC(=O)c2ccc(Cl)c(Cl)c2)N[C@@H](CCN)C1=O)c1ccccc1 [Compound 170, N-(((3S,5S)-3-(2-aminoethyl)-2-oxo-1-((S)-2-phenylbutyl)-1,4-diazepan-5-yl)methyl)-3,4-dichlorobenzamide], the IC50 was < 10 µM. In the case of CC[C@@H](CN1CC[C@H](CNC(=O)c2ccc3cc(Cl)ccc3c2)N[C@H](CCN2CCCCC2)C1=O)c1ccccc1 [Compound 182, 6-chloro-N-(((3R,5R)-2-oxo-1-((R)-2-phenylbutyl)-3-(2-(piperidin-1-yl)ethyl)-1,4-diazepan-5-yl)methyl)-2-naphthamide], the IC50 is reported as < 10 µM. For O=C(/C=C/c1ccc(F)cc1)NC[C@@H]1CCN(CC(c2ccccc2)c2ccccc2)C(=O)[C@H](CCCNC2CCCCC2)N1 [Compound 127, (E)-N-(((3S,5S)-3-(3-(cyclohexylamino)propyl)-1-(2,2-diphenylethyl)-2-oxo-1,4-diazepan-5-yl)methyl)-3-(4-fluorophenyl)acrylamide], the IC50 was < 10 µM. In the case of O=C(/C=C/c1ccc(Br)cc1)NC[C@@H]1CCN(CC(c2ccccc2)c2ccccc2)C(=O)[C@H](CCN2CCCCC2)N1 [Compound 161, (E)-3-(4-bromophenyl)-N-(((3S,5S)-1-(2,2-diphenylethyl)-2-oxo-3-(2-(piperidin-1-yl)ethyl)-1,4-diazepan-5-yl)methyl)acrylamide], the IC50 is reported as < 10 µM. “N-(((3R,5R)-3-(2-amino-2-methylpropyl)-2-oxo-1-((S)-2-phenylbutyl)-1,4-diazepan-5-yl)methyl)-6-chloro-2-naphthamide [Compound 169]” was tested, and the IC50 was < 10 µM. In the case of N=C(N)NCCC[C@@H]1N[C@H](CNC(=O)c2ccc3ccccc3c2)CCN(CC(C(=O)Nc2ccccc2)c2ccccc2)C1=O (stereo partly drawn) [Compound 147, N-(((3S,5S)-3-(3-guanidinopropyl)-2-oxo-1-(3-oxo-2-phenyl-3-(phenylamino)propyl)-1,4-diazepan-5-yl)methyl)-2-naphthamide], the IC50 is reported as < 10 µM. O=C(NC[C@@H]1CCN(CC(c2ccccc2)c2ccccc2)C(=O)[C@H](CCN2CCCCC2)N1)c1ccc2cc(Cl)ccc2c1 [Compound 154, 6-chloro-N-(((3S,5S)-1-(2,2-diphenylethyl)-2-oxo-3-(2-(piperidin-1-yl)ethyl)-1,4-diazepan-5-yl)methyl)-2-naphthamide] was tested, and the IC50 was < 10 µM. In the case of N=C(N)NCCC[C@@H]1N[C@H](CNC(=O)c2cnc3ccccc3c2)CCN(CC(c2ccccc2)c2ccccc2)C1=O [Compound 109, N-(((3S,5S)-1-(2,2-diphenylethyl)-3-(3-guanidinopropyl)-2-oxo-1,4-diazepan-5-yl)methyl)quinoline-3-carboxamide], the IC50 is reported as < 10 µM. For NC[C@@H]1N[C@H](CNC(=O)c2ccc3ccccc3c2)CCN(Cc2cc(Cl)cc(Cl)c2)C1=O [Compound 149, N-(((3S,5S)-3-(aminomethyl)-1-(3,5-dichlorobenzyl)-2-oxo-1,4-diazepan-5-yl)methyl)-2-naphthamide], the IC50 was < 10 µM. CC(C)(C)c1ccc(C(=O)NC[C@@H]2CCN(CC(c3ccccc3)c3ccccc3)C(=O)[C@H](CCCNC(=N)N)N2)cc1 [Compound 114, 4-tert-butyl-N-(((3S,5S)-1-(2,2-diphenylethyl)-3-(3-guanidinopropyl)-2-oxo-1,4-diazepan-5-yl)methyl)benzamide] was tested, and the IC50 was < 10 µM. CNC(=O)[C@H](Cc1ccc2ccccc2c1)N1CC[C@H](CNC(=O)Cc2ccc(Cl)cc2)N[C@@H](CCCNC(=N)N)C1=O [Compound 167, (S)-2-((3S,5R)-5-((2-(4-chlorophenyl)acetamido)methyl)-3-(3-guanidinopropyl)-2-oxo-1,4-diazepan-1-yl)-N-methyl-3-(naphthalen-2-yl)propanamide] was tested, and the IC50 was < 10 µM. With NCC[C@@H]1N[C@H](CNC(=O)/C=C/c2ccc(Cl)cc2)CCN(Cc2cc(Cl)cc(Cl)c2)C1=O [Compound 141, (E)-N-(((3S,5S)-3-(2-aminoethyl)-1-(3,5-dichlorobenzyl)-2-oxo-1,4-diazepan-5-yl)methyl)-3-(4-chlorophenyl)acrylamide] the IC50 was < 10 µM. In the case of CC[C@H](CN1CC[C@@H](CNC(=O)c2csc(-c3ccccc3)n2)N[C@@H](CCN2CCCCC2)C1=O)c1ccccc1 [Compound 178, N-(((3S,5S)-2-oxo-1-((S)-2-phenylbutyl)-3-(2-(piperidin-1-yl)ethyl)-1,4-diazepan-5-yl)methyl)-2-phenylthiazole-4-carboxamide], the IC50 is reported as < 10 µM. For N=C(N)NCCC[C@@H]1N[C@H](CNC(=O)c2ccc3ccccc3c2)CCN(CCC2CC3CCC2C3)C1=O (stereo partly drawn) [Compound 131, N-(((3S,5S)-1-(2-(bicyclo[2.2.1]heptan-2-yl)ethyl)-3-(3-guanidinopropyl)-2-oxo-1,4-diazepan-5-yl)methyl)-2-naphthamide], the IC50 was < 10 µM. In the case of CC(C)(NC(=O)/C=C/c1ccc(Cl)cc1)[C@@H]1CCN(CC(c2ccccc2)c2ccccc2)C(=O)[C@H](CCN2CCCCC2)N1 [Compound 165, (E)-3-(4-chlorophenyl)-N-(2-((3S,5S)-1-(2,2-diphenylethyl)-2-oxo-3-(2-(piperidin-1-yl)ethyl)-1,4-diazepan-5-yl)propan-2-yl)acrylamide], the IC50 is reported as < 10 µM. In the case of NCCC[C@@H]1N[C@H](CNC(=O)c2ccc(-c3ccc(Cl)cc3)o2)CCN(CC(c2ccccc2)c2ccccc2)C1=O [Compound 128], the IC50 is reported as < 10 µM. With CNC(=O)[C@H](Cc1ccc2ccccc2c1)N1CC[C@H](CNC(=O)/C=C/c2ccc(Cl)cc2)N[C@@H](CCCNC(=N)N)C1=O [Compound 175, (E)-3-(4-chlorophenyl)-N-(((3S,5R)-3-(3-guanidinopropyl)-1-((S)-1-(methylamino)-3-(naphthalen-2-yl)-1-oxopropan-2-yl)-2-oxo-1,4-diazepan-5-yl)methyl)acrylamide] the IC50 was < 10 µM. In the case of CN1[C@H](CNC(=O)c2ccc3cc(Br)ccc3c2)CCN(CC(c2ccccc2)c2ccccc2)C(=O)[C@@H]1CCCN [Compound 105, N-(((3S,5S)-3-(3-aminopropyl)-1-(2,2-diphenylethyl)-4-methyl-2-oxo-1,4-diazepan-5-yl)methyl)-6-bromo-2-naphthamide], the IC50 is reported as < 10 µM.
